# In PubChem BioAssay (NCI):
# Several values for one entry are separate records, joined by “and”; a condition that tells them apart may be missing. Identical values can stand only once.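 Compound exposure: 48 hours, 5 concentrations, 96-well plates. GI50 = concentration required for 50% inhibition of growth. TGI marks complete inhibition of growth.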
# Tests used:
# Assay in all cases: NCI tumour cell line growth inhibition, 48 h
# [1] = tested on: UACC-257 melanoma
# [2] = tested on: T-47D breast
# [3] = tested on: K-562 leukemia
# [4] = tested on: HOP-92 NSCLC
# [5] = tested on: SNB-19 CNS
# [6] = tested on: SK-OV-3 ovarian
# [7] = tested on: UO-31 renal
# [8] = tested on: PC-3 prostate
# [9] = tested on: ACHN renal
# [10] = tested on: NCI-H522 lung
SMILES,GI50 [1],TGI [1],GI50 [2],TGI [2],GI50 [3],TGI [3],GI50 [4],TGI [4],GI50 [5],TGI [5],GI50 [6],TGI [6],GI50 [7],TGI [7],GI50 [8],TGI [8],GI50 [9],TGI [9],GI50 [10],TGI [10]
CC(C)(C)OC(=O)N1CCc2c(sc3ncnc(N/N=C/c4cccc5ccccc45)c23)C1,5.8 µM,69.6 µM,3.04 µM,31.9 µM,2.88 µM,62.4 µM,2.78 µM,92.3 µM,5.05 µM,> 100 µM,4 µM,> 100 µM,2.68 µM,14.9 µM,4.59 µM,> 100 µM,3.24 µM,78.5 µM,2.26 µM,7.21 µM
CC(=O)OCCN1c2ccccc2Sc2cnccc21,,> 10 µM,,> 10 µM,,> 10 µM,,> 10 µM,,> 10 µM,,> 10 µM,,> 10 µM,,> 10 µM,,> 10 µM,,> 10 µM
COc1cc2c(c(O)c1Br)C(=O)c1c(O)cc(C[C@H](C)O)cc1[C@H]2[C@H]1c2cc(C[C@H](C)O)cc(O)c2C(=O)c2c1cc(OC)c(Br)c2O,11.2 µM and 19.1 µM,39.8 µM and 67.7 µM,2.04 µM and 4.09 µM,13.2 µM and 23.4 µM,2.74 µM and 6.22 µM,67.5 µM and > 100 µM,5.31 µM and 9.42 µM,32.3 µM and 39.6 µM,5.07 µM and 10.4 µM,67.5 µM and 80.1 µM,11.6 µM and 24.3 µM,47.1 µM and 89.8 µM,7.52 µM and 15.4 µM,15.9 µM and 29.8 µM,2.85 µM and 4.4 µM,67.5 µM and > 100 µM,2.38 µM and 10.5 µM,9.27 µM and 23.1 µM,8.02 µM and 25.7 µM,18.9 µM and 78.7 µM
CC[C@@H]1CN(C)[C@H]2Cc3c([nH]c4ccccc34)C(=O)C[C@H]1C2C(=O)OC (stereo not given in full),,> 100 µM,,> 100 µM,,> 100 µM,,> 100 µM,,> 100 µM,,> 100 µM,,> 100 µM,,> 100 µM,,> 100 µM,,> 100 µM
C=C1C(=O)O[C@H]2[C@H]1CC/C(COC(=O)c1ccc3ccccc3c1)=C\CC[C@@]1(C)O[C@@H]21,1.39 µM,2.78 µM,1.03 µM,2.73 µM,0.39 µM,5.47 µM,0.301 µM,1.81 µM,1.36 µM,2.75 µM,3.51 µM,10.8 µM,0.859 µM,2.11 µM,1.24 µM,2.79 µM,1.1 µM,2.32 µM,0.739 µM,2.2 µM
CC(C)c1nc(CN(C)C(=O)N[C@H](C(=O)N[C@@H](Cc2ccccc2)C[C@H](O)[C@H](Cc2ccccc2)NC(=O)OCc2cncs2)C(C)C)cs1,18.4 µM,38 µM,21.7 µM,73 µM,26.6 µM,92.1 µM,20.8 µM,49.5 µM,26.4 µM,> 89 µM,35.8 µM,> 100 µM,24.5 µM,> 83.8 µM,20.8 µM,79.2 µM,29.1 µM,82.3 µM,28.7 µM,> 81 µM
CC[C@@H]1C(=O)N(C)c2cnc(Nc3ccc(C(=O)NC4CCN(C)CC4)cc3OC)nc2N1C1CCCC1,0.903 µM and 0.103 µM,> 5.26 µM and 1.98 µM,0.0718 µM and 0.157 µM,> 10 µM and 6.27 µM,0.00367 µM and < 0.01 µM,> 10 µM and 3.54 µM,0.0125 µM and 0.0149 µM,0.563 µM and 2.36 µM,0.0058 µM and < 0.01 µM,> 10 µM and 20.3 µM,0.00746 µM and < 0.01 µM,0.593 µM and 0.128 µM,0.323 µM and 0.631 µM,> 3.97 µM and 15.1 µM,0.00454 µM and < 0.01 µM,> 10 µM and 19.1 µM,0.148 µM and 0.0895 µM,> 5.11 µM and 2.24 µM,0.00294 µM and < 0.01 µM,< 0.0561 µM
N#CSc1c[nH]c2cccc(/C=C/C(=O)/C=C(/C=C/c3cccc4[nH]cc(SC#N)c34)OB(F)F)c12,1.98 µM,10.9 µM,0.358 µM,6.2 µM,0.297 µM,1.38 µM,0.309 µM,1.45 µM,2.33 µM,14.7 µM,9.74 µM,41.5 µM,0.391 µM,1.55 µM,0.419 µM,4.19 µM,0.389 µM,1.72 µM,0.207 µM,0.501 µM
O=C1Nc2c(C(F)(F)F)cccc2[C@]1(c1ccc(O)cc1)c1ccc(OC(F)(F)F)cc1,11.8 µM,24.9 µM,1.18 µM,17.9 µM,8.57 µM,> 100 µM,5.82 µM,21.5 µM,14.1 µM,27.2 µM,17.3 µM,36.5 µM,6.45 µM,20 µM,4.31 µM,21.3 µM,9.82 µM,21.5 µM,12.9 µM,28.5 µM
CCN(CC)c1ccc(/C=C/c2ccc3cc(C)ccc3[n+]2CC)cc1,0.116 µM,1.28 µM,0.0182 µM,1.41 µM,0.036 µM,13.5 µM,0.147 µM,0.87 µM,0.0621 µM,13.4 µM,0.141 µM,0.732 µM,0.691 µM,7.45 µM,0.0664 µM,6.17 µM,0.336 µM,5.67 µM,0.0835 µM,2.55 µM
C=CC(=O)N1CC2(CCN(c3nc(OC4CCN(CCCOC)CC4)nc4c(OCC(F)(F)F)c(-c5c(C)ccc6[nH]ncc56)c(C5CC5)cc34)CC2)C1,3.03 µM,12.4 µM,2.71 µM,9.46 µM,2.07 µM,5.84 µM,3.53 µM,11 µM,6.89 µM,20.1 µM,8.57 µM,23.8 µM,1.7 µM,3.13 µM,2.61 µM,9.86 µM,2.11 µM,4.44 µM,1.78 µM,3.57 µM
COC1/C=C\C=C(/C)C(=O)NC2=CC(=O)C(=O)C(=C2O)CC(C)CC(OC)C(O)C(C)/C=C(\C)C1OC(N)=O (stereo not given),,> 36.3 µM,,70.9 µM,,> 100 µM,,21 µM,,> 100 µM,,> 100 µM,,39.8 µM,,> 37.7 µM,,> 82.1 µM,,18.3 µM
COc1cc(C2=C(c3ccccc3)COC2=O)cc(OC)c1OC,> 25 µM,> 94.8 µM,20.9 µM,> 100 µM,0.289 µM,> 100 µM,13.6 µM,> 100 µM,4.42 µM,> 100 µM,4.56 µM,> 100 µM,7.77 µM,> 49.9 µM,1.35 µM,> 100 µM,> 43.5 µM,> 100 µM,2.48 µM,> 57.4 µM
